Data on eleven compounds can be found in US12435066B2, “Substituted tricyclic compounds” (LUPIN LIMITED, priority 2019, dated 2025).

The experiment relates to pERK in DLD1 cells. Kind of experiment: ERK phosphorylation assay after EGF stimulation. In kind it is cell-based. To be noted: Homo sapiens, DLD-1, compound 2 h, 200 ng/ml hEGF 5 minutes, alphascreen pERK, read-out: ERK phosphorylation inhibition IC50. Here is the method:
Example-128: ERK Phosphorylation Assay Protocol
Compounds were tested for their ability to inhibit pERK after EGF stimulation in DLD1 cells. Cells were seeded at 0.2 million cells per well in 96 well cell binding tissue culture plate in 100 μL complete media and were allowed to settle overnight (16 to 20 h). On the following day, cells were treated with various concentrations of test compounds for 2 h followed by stimulation with 200 ng/ml hEGF (diluted in PBS) for 5 minutes. Cells were then washed once with PBS and lysed in freshly prepared lysis buffer (provided with alphascreen surefire ERK1/2 p-T202/Y204 assay kit, cat no: TGRESB10K, Perkin Elmer). Lysis was carried out in plate shaker for 10-15 mins. Lysate was transferred to […] white opti-plate (Perkin Elmer) and alphascreen for pERK was carried out as per manufacturer's instructions. Plate was read after 2 h incubation in plate shaker at […] 300 RPM, 25-28° C.
What is called IC50 is the midpoint of a concentration-inhibition curve. Regarding `COCC1CN(c2cc3c(N[C@H](C)c4cccc(C(F)(F)CO)c4F)nc(C)nc3c3c2CCC3)C1` [Compound 9, (R)-2,2-difluoro-2-(2-fluoro-3-(1-((6-(3-(methoxymethyl)azetidin-1-yl)-2-methyl-8,9-dihydro-7H-cyclopenta[h]quinazolin-4-yl)amino)ethyl)phenyl)ethan-1-ol], the IC50 lay in the range of 201 to 500 nM.

Consider `COC[C@@H]1CN(c2cc3c(N[C@H](C)c4cc(N)cc(C(F)(F)F)c4)nc(C)nc3c3c2CCC3)CCO1` [Compound 32, N—((R)-1-(3-amino-5-(trifluoromethyl)phenyl)ethyl)-6-((S)-2-(methoxymethyl)morpholino)-2-methyl-8,9-dihydro-7H-cyclopenta[h]quinazolin-4-amine], for which the IC50 was 201 to 500 nM.

For the compound `Cc1nc(N[C@H](C)c2cc(N)cc(C(F)(F)F)c2)c2cc(C3CCC(O)CC3)c3c(c2n1)CCC3` (stereo partly drawn) [Compound 125, (R)-4-(4-((1-(3-amino-5-(trifluoromethyl)phenyl)ethyl)amino)-2-methyl-8,9-dihydro-7H-cyclopenta[h]quinazolin-6-yl)cyclohexan-1-ol], the IC50 lay in the range of 1 to 200 nM.

Turning to `Cc1nc(N[C@H](C)c2cc(N)cc(C(F)(F)F)c2)c2cc(C3CCOCC3)c3c(c2n1)CCC3` [Compound 104, (R)—N-(1-(3-amino-5-(trifluoromethyl)phenyl)ethyl)-2-methyl-6-(tetrahydro-2H-pyran-4-yl)-8,9-dihydro-7H-cyclopenta[h]quinazolin-4-amine], the IC50 lay in the range of 201 to 500 nM.

With `Cc1nc(NC(C)c2cccc(C(F)(F)F)c2F)c2cc(N3CC4(COC4)C3)c3c(c2n1)CCC3` (single isomer, unassigned) [Compound 34, N-(1-(2-fluoro-3-(trifluoromethyl)phenyl)ethyl)-2-methyl-6-(2-oxa-6-azaspiro[3.3]heptan-6-yl)-8,9-dihydro-7H-cyclopenta[h]quinazolin-4-amine], the IC50 was in the range of 1 to 200 nM.

`Cc1nc(N[C@H](C)c2cc(N)cc(C(F)(F)F)c2)c2cc(N3CCC4(CCCO4)CC3)c3c(c2n1)CCC3` [Compound 13, (R)—N-(1-(3-amino-5-(trifluoromethyl)phenyl)ethyl)-2-methyl-6-(1-oxa-8-azaspiro[4.5]decan-8-yl)-8,9-dihydro-7H-cyclopenta[h]quinazolin-4-amine]: the IC50 lay within 1 to 200 nM.

`Cc1nc(N[C@H](C)c2cc(N)cc(C(F)(F)F)c2)c2cc(C3CCC(=O)CC3)c3c(c2n1)CCC3` [Compound 124, (R)-4-(4-((1-(3-amino-5-(trifluoromethyl)phenyl)ethyl)amino)-2-methyl-8,9-dihydro-7H-cyclopenta[h]quinazolin-6-yl)cyclohexan-1-one]: the IC50 fell in the range of 201 to 500 nM.

In the case of `Cc1nc(N[C@H](C)c2cccc(C(F)(F)CO)c2F)c2cc(N3CC[C@](C)(O)C3)c3c(c2n1)CCC3` (single isomer, unassigned) [Compound 67a], the IC50 was 1 to 200 nM.

Turning to `CC(=O)N1CCC(c2cc3c(N[C@H](C)c4cc(N)cc(C(F)(F)F)c4)nc(C)nc3c3c2CCC3)CC1` [Compound 102, (R)-1-(4-(4-((1-(3-amino-5-(trifluoromethyl)phenyl)ethyl)amino)-2-methyl-8,9-dihydro-7H-cyclopenta[h]quinazolin-6-yl)piperidin-1-yl)ethan-1-one], the IC50 is 1 to 200 nM.

On to `Cc1nc(N[C@H](C)c2cc(N)cc(C(F)(F)F)c2)c2cc(C3CCN(C(=O)C4CC4)CC3)c3c(c2n1)CCC3` [Compound 100, (R)-(4-(4-((1-(3-amino-5-(trifluoromethyl)phenyl)ethyl)amino)-2-methyl-8,9-dihydro-7H-cyclopenta[h]quinazolin-6-yl)piperidin-1-yl)(cyclopropyl)methanone], for which the IC50 is 201 to 500 nM.

For the compound `Cc1nc(N[C@H](C)c2cc(N)cc(C(F)(F)F)c2)c2cc(O[C@H]3CCOC3)c3c(c2n1)CC(C)O3` (mixture of isomers) [Compound 118a, (R/S)—N—((R)-1-(3-amino-5-(trifluoromethyl)phenyl)ethyl)-2,8-dimethyl-6-(((S)-tetrahydrofuran-3-yl)oxy)-8,9-dihydrofuro[2,3-h]quinazolin-4-amine], the IC50 fell in the range of 1 to 200 nM.
